Molecular target: MnMT4
Assay: biolayer interferometry
Type: binding, Mycolicibacterium neoaurum

Kd [µM]	SMILES
0.0291	Nc1ncnc2c1ncn2[C@@H]1O[C@H](CSCC[C@H](N)C(=O)O)[C@@H](O)[C@H]1O [SAH]
18.4	C[S+](CC[C@H](N)C(=O)[O-])C[C@H]1O[C@@H](n2cnc3c(N)ncnc32)[C@H](O)[C@@H]1O (some centres unmarked) [SAM]
